Target: T1, human GLP-1R (Homo sapiens, UniProt P43220)
T1 construct: expressed in transfected cells; host or cells: PEAK RAPID-derived Gα15-trans48 LD stably expressing cells (PRG48), transiently transfected with Lipofectamine 2000
Assay: GLP-1 receptor in vitro calcium assay (intracellular free calcium concentration change induced via GLP-1 receptor)
Format: cell-based
Settings: for EC50: PRG48 cells transfected with human GLP-1R, compound added with 250 pM GLP-1, Ca2+ response ΔF/F, read-out: Ca EC50 value; for GLP-1 receptor action enhancing activity (vs BETP): intensity compared to BETP, activity of BETP as 1
Method: The supernatant was removed by centrifugation (1,200 rpm, 3 min), and the cells were suspended at 4×10^6 cells/mL in 5% FBS DMEM/Ham's F-12. 1.0 mL thereof was seeded in a 15 cm dish and cultured (37° C., 5% CO2) overnight. The next day, the medium of the cultured PRG48 cells was replaced with 5% FBS DMEM/Ham's F-12 medium (30 mL), human GLP-1R gene mixture solution (GLP-1R/pc.DNA3.1(+) 60 μg) prepared using 6.0 mL of Opti-MEM (invitrogen) and 120 μL of Lipofectamin 2000 (invitrogen) was slowly added to the cells, and cultured (37° C., 5% CO2) for 6 hr to introduce the gene. […] The cells were counted, suspended at 0.5×10^6 cells/mL in 5% FBS DMEM/Ham's F-12 medium, and seeded in each well of D-Lysine coat 96 well plate (BD Bioscience) at 7.0×10^4 cells. After static adhesion at room temperature for 1 hr, the cells were cultured overnight (37° C., 5% CO2). The medium in the Cultured 96 well was entirely discarded, 150 μL of intracellular calcium measurement staining solution Calcium assay kit Express (Molecular Device) diluted 80-fold with Assay buffer (20 mM HEPES, 146 mM NaCl, 1 mM MgSO4, 1.39 mM glucose, 1 mM CaCl2, 2.5 mM Probenecid, 0.05% Casein Enzymatic Hydrolysate) was added, and the mixture was stood at 37° C. for 30 min, and then at room temperature for 45 min to perform staining. After staining, 250 pM GLP-1 and the compound were added and Ca^2+ response was observed by using FDSSμCELL (Hamamatsu Photonics K.K.). Each evaluation compound was dissolved in DMSO, further diluted with Assay buffer and used.
For evaluation, the fluorescence values (Ex480:Em540) before and after addition were measured, and changes in the intracellular free calcium concentration produced via GLP-1R receptor by the addition were quantitatively examined. For the measurement and analysis of the fluorescence values, a soft (FDSS7000EX) attached to the FDSSμCELL was used, and ΔF/F value ((maximum fluorescence value after stimulation−minimum fluorescence value after stimulation)/fluorescence value before stimulation) was calculated. Using the obtained ΔF/F values, EC50 value was calculated by Prism5.

T1 sequence (P43220 24-463): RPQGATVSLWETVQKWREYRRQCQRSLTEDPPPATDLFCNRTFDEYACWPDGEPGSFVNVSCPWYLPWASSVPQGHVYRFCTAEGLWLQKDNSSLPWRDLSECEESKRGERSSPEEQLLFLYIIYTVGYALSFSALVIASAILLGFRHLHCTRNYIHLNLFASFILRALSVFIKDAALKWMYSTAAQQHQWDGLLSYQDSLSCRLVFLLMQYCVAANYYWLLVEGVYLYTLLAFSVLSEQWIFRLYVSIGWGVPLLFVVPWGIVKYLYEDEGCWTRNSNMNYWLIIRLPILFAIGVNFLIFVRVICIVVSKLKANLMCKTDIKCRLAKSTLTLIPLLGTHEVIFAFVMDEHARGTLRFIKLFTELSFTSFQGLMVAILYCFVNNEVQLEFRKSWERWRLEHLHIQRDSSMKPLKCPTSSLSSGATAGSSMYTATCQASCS

Compound: CC(C)(C)c1ccc(S(=O)(=O)Nc2ccc(NC(=O)N[C@H](CC3CCCCC3)c3nc(C(C)(C)C)no3)cc2)cc1 [Compound 82]
- EC50: 16 nM
- GLP-1 receptor action enhancing activity (vs BETP): 1606

Compound: CCCOc1ccc(-c2noc([C@H](CC3CCCCC3)NC(=O)Nc3ccc(NS(=O)(=O)c4ccc(C(C)(C)C)cc4)cc3)n2)cc1 [Compound 83]
- EC50: 4.3 nM
- GLP-1 receptor action enhancing activity (vs BETP): 5794

Compound: CC(C)(C)c1ccc(S(=O)(=O)Nc2ccc(NC(=O)N[C@@H](CC3CCCCC3)c3nc(-c4ccc(OC(F)(F)F)cc4)no3)cc2)cc1 [Compound 84]
- EC50: 3.4 nM
- GLP-1 receptor action enhancing activity (vs BETP): 7358

Compound: CCCCCCCN(C(=O)N[C@H](Cc1ccccc1)C(=O)OC(C)(C)C)c1ccc(NS(=O)(=O)c2ccc(C)cc2)cc1 [Compound 85, tert-butyl (2R)-2-({heptyl-[4-(p-tolylsulfonylamino)phenyl]carbamoyl}amino)-3-phenyl-propanoate]
- EC50: 7 nM
- GLP-1 receptor action enhancing activity (vs BETP): 3578

Compound: Cc1ccc(S(=O)(=O)Nc2ccc(N(C)C(=O)N[C@H](Cc3ccccc3)C(=O)OC(C)(C)C)cc2)cc1 [Compound 86]
- EC50: 430 nM
- GLP-1 receptor action enhancing activity (vs BETP): 58

Compound: Cc1ccc(S(=O)(=O)Nc2ccc(NC(=O)N[C@H](Cc3ccccc3)C(=O)OC(C)(C)C)cc2F)cc1 [Compound 87, tert-butyl (2R)-2-{[3-fluoro-4-(p-tolylsulfonylamino)phenyl]carbamoylamino}-3-phenyl-propanoate]
- EC50: 1100 nM
- GLP-1 receptor action enhancing activity (vs BETP): 23

Compound: COc1cc(NC(=O)N[C@H](Cc2ccccc2)C(=O)OC(C)(C)C)ccc1NS(=O)(=O)c1ccc(C)cc1 [Compound 88]
- EC50: 1300 nM
- GLP-1 receptor action enhancing activity (vs BETP): 20

Compound: Cc1ccc(S(=O)(=O)Nc2ccc(NC(=O)N[C@H](CC(C)C)C(=O)N[C@H](Cc3ccccc3)c3nc(C(C)(C)C)no3)cc2)cc1 [Compound 89]
- EC50: 260 nM
- GLP-1 receptor action enhancing activity (vs BETP): 98

Compound: Cc1ccc(S(=O)(=O)Nc2ccc(NC(=O)N[C@H](Cc3ccccc3)c3nnc(S)n3-c3ccccc3)cc2)cc1 [Compound 90]
- EC50: 1400 nM
- GLP-1 receptor action enhancing activity (vs BETP): 18

Compound: CSCCCNC(=O)[C@@H](CC1CCCCC1)NC(=O)Nc1ccc(NS(=O)(=O)c2ccc(C(C)(C)C)cc2)cc1 [Compound 91]
- EC50: 56 nM
- GLP-1 receptor action enhancing activity (vs BETP): 446

Compound: CC(C)CCCC(C)NC(=O)[C@@H](CC1CCCCC1)NC(=O)Nc1cccc(NS(=O)(=O)c2ccc(C(C)(C)C)cc2)c1 (stereo partly shown) [Compound 92]
- EC50: 24 nM
- GLP-1 receptor action enhancing activity (vs BETP): 1028

Compound: CCCCCCNC(=O)[C@@H](CC1CCCCC1)NC(=O)Nc1cccc(NS(=O)(=O)c2ccc(C(C)(C)C)cc2)c1 [Compound 93]
- EC50: 45 nM
- GLP-1 receptor action enhancing activity (vs BETP): 555

Compound: CC(C)CCCC(C)NC(=O)[C@@H](Cc1c[nH]c2ccccc12)NC(=O)Nc1cccc(NS(=O)(=O)c2ccc(C(C)(C)C)cc2)c1 (stereo partly shown) [Compound 94]
- EC50: 180 nM
- GLP-1 receptor action enhancing activity (vs BETP): 140

Compound: CCCCCCNC(=O)[C@@H](Cc1c[nH]c2ccccc12)NC(=O)Nc1cccc(NS(=O)(=O)c2ccc(C(C)(C)C)cc2)c1 [Compound 95]
- EC50: 250 nM
- GLP-1 receptor action enhancing activity (vs BETP): 101

Compound: CSCCCN(c1ccc(NC(=O)N[C@H](CC2CCCCC2)C(=O)NC(C)CCCC(C)C)cc1)S(=O)(=O)c1ccc(C(C)(C)C)cc1 (stereo partly drawn) [Compound 97, (2R)-2-({4-[(4-tert-butylphenyl)sulfonyl-(3-methylsulfanylpropyl)amino]phenyl}carbamoylamino)-3-cyclohexyl-N-(1,5-dimethylhexyl)propanamide]
- EC50: 63 nM
- GLP-1 receptor action enhancing activity (vs BETP): 399

Compound: CCCCC(CC)CNC(=O)[C@@H](Cc1c[nH]c2ccccc12)NC(=O)Nc1ccc(NS(=O)(=O)c2ccc(C(C)(C)C)cc2)cc1F (stereo partly drawn) [Compound 98, (2R)-2-[[4-[(4-tert-butylphenyl)sulfonylamino]-2-fluoro-phenyl]carbamoylamino]-N-(2-ethylhexyl)-3-(1H-indol-3-yl)propanamide]
- EC50: 72 nM
- GLP-1 receptor action enhancing activity (vs BETP): 350

Compound: CC(C)(C)SCCCCCNC(=O)[C@@H](CC1CCCCC1)NC(=O)Nc1ccc(NS(=O)(=O)c2ccc(C(C)(C)C)cc2)cc1 [Compound 99]
- EC50: 150 nM
- GLP-1 receptor action enhancing activity (vs BETP): 169

Compound: CCCCC(CC)CNC(=O)[C@@H](CC1CCCCC1)NC(=O)Nc1ccc(N2CCOCC2)c(NS(=O)(=O)c2ccc(C(C)(C)C)cc2)c1 (stereo partly drawn) [Compound 100, (2R)-2-({3-[(4-tert-butylphenyl)sulfonylamino]-4-morpholino-phenyl}carbamoylamino)-3-cyclohexyl-N-(2-ethylhexyl)propanamide]
- EC50: 50 nM
- GLP-1 receptor action enhancing activity (vs BETP): 503

Compound: CCCCC(CC)CNC(=O)[C@@H](CC1CCCCC1)NC(=O)N(CC(=O)O)c1ccc(NS(=O)(=O)c2ccc(C(C)(C)C)cc2)cc1 (stereo partly shown) [Compound 101]
- EC50: 20 nM
- GLP-1 receptor action enhancing activity (vs BETP): 1272

Compound: CC(C)CCCC(C)NC(=O)[C@@H](Cc1cccnc1)NC(=O)Nc1ccc(NS(=O)(=O)c2ccc(C(C)(C)C)cc2)cc1 (stereo partly shown) [Compound 102]
- EC50: 130 nM
- GLP-1 receptor action enhancing activity (vs BETP): 193

Compound: CC(C)CCCC(C)NC(=O)[C@@H](Cc1cccnc1)NC(=O)Nc1cccc(NS(=O)(=O)c2ccc(C(C)(C)C)cc2)c1 (stereo partly shown) [Compound 103]
- EC50: 130 nM
- GLP-1 receptor action enhancing activity (vs BETP): 195

Compound: CC(C)CCCC(C)NC(=O)[C@@H](CC1CCCCC1)NC(=O)Nc1ccc(NS(=O)(=O)c2ccc(N3CCOCC3)nc2)cc1 (stereo partly drawn) [Compound 104, (2R)-3-cyclohexyl-N-(1,5-dimethylhexyl)-2-({4-[(6-morpholino-3-pyridyl)sulfonylamino]phenyl}carbamoylamino)propanamide]
- EC50: 480 nM
- GLP-1 receptor action enhancing activity (vs BETP): 53

Compound: CCCCCCNc1ccc(S(=O)(=O)Nc2ccc(NC(=O)N[C@H](CC3CCCCC3)C(=O)NC(C)CCCC(C)C)cc2)cn1 (stereo partly shown) [Compound 105]
- EC50: 440 nM
- GLP-1 receptor action enhancing activity (vs BETP): 56

Compound: CC(C)CCCC(C)NC(=O)[C@@H](Cc1ccncc1)NC(=O)Nc1ccc(NS(=O)(=O)c2ccc(C(C)(C)C)cc2)cc1 (stereo partly shown) [Compound 106]
- EC50: 390 nM
- GLP-1 receptor action enhancing activity (vs BETP): 64

Compound: COCCCNC(=O)[C@@H](CC1CCCCC1)NC(=O)Nc1ccc(NS(=O)(=O)c2ccc(C(C)(C)C)cc2)cc1 [Compound 107]
- EC50: 720 nM
- GLP-1 receptor action enhancing activity (vs BETP): 35

Compound: CC(C)CCCC(C)NC(=O)[C@@H](CC1CCCCC1)NC(=O)N(CC(=O)O)c1ccc(NS(=O)(=O)c2ccc(C(C)(C)C)cc2)cc1 (stereo partly drawn) [Compound 108, 2-(4-[(4-tert-butylphenyl)sulfonylamino]-N-{[(1R)-1-(cyclohexylmethyl)-2-(1,5-dimethylhexylamino)-2-oxo-ethyl]carbamoyl}anilino)acetic acid]
- EC50: 1.5 nM
- GLP-1 receptor action enhancing activity (vs BETP): 17107

Compound: CCCCCCNc1ccc(S(=O)(=O)Nc2cccc(NC(=O)N[C@H](CC3CCCCC3)C(=O)NC(C)CCCC(C)C)c2)cn1 (stereo partly shown) [Compound 109]
- EC50: 11 nM
- GLP-1 receptor action enhancing activity (vs BETP): 2311

Compound: CCCCCCNc1ccc(S(=O)(=O)Nc2cccc(NC(=O)N[C@H](Cc3c[nH]c4ccccc34)C(=O)NC(C)CCCC(C)C)c2)cn1 (stereo partly shown) [Compound 110]
- EC50: 4.4 nM
- GLP-1 receptor action enhancing activity (vs BETP): 5731

Compound: CCCCC(CC)CNC(=O)[C@@H](CC1CCCCC1)NC(=O)Nc1ccc(N(CCCSC)S(=O)(=O)c2ccc(C(C)(C)C)cc2)cc1 (stereo partly shown) [Compound 111]
- EC50: 3.3 nM
- GLP-1 receptor action enhancing activity (vs BETP): 7694

Compound: CSCCCN(c1ccc(NC(=O)N[C@H](Cc2c[nH]c3ccccc23)C(=O)NC(C)CCCC(C)C)cc1)S(=O)(=O)c1ccc(C(C)(C)C)cc1 (stereo partly shown) [Compound 112]
- EC50: 11 nM
- GLP-1 receptor action enhancing activity (vs BETP): 2206

Compound: CCCCCCNc1ccc(S(=O)(=O)Nc2cccc(NC(=O)N[C@H](CC3CCCCC3)C(=O)NCCCSC)c2)cn1 [Compound 113]
- EC50: 28 nM
- GLP-1 receptor action enhancing activity (vs BETP): 898

Compound: CCCCCCNc1ccc(S(=O)(=O)Nc2cccc(NC(=O)N[C@H](CC3CCCCC3)C(=O)NCC(CC)CCCC)c2)cn1 (stereo partly shown) [Compound 114]
- EC50: 30 nM
- GLP-1 receptor action enhancing activity (vs BETP): 850

Reference: patent US20190022039A1, “COMPOUND HAVING ENHANCING ACTIVITY FOR GLUCAGON-LIKE PEPTIDE-1 RECEPTOR ACTIONS” (AJINOMOTO CO., INC., priority 2016, published 2019)
